Assays:
U87 glioblastoma cells = assay: Acid-induced calcium flux in U87 cells; assay type: cell-based, human; settings: medium shifted from pH 7.8 to 6.4
Description: GPR68 is known to signal through Gq which results in a calcium flux out of the Endoplasmic reticulum. U87 glioblastoma cells were stained, using a calcium-sensitive vital dye Fluo-8, and stimulated with acidification of the media to pH6.4. The cells respond to the acidification with a burst of calcium release, this is inhibited by OGM2.
To determine if GBM cells respond to their own acidic extracellular milieu as a form of autocrine signaling, calcium release in response to acidification was measured. GPR68 is known to couple to the Gq subunit, which acts to release calcium from the ER in a PLC dependent pathway. The medium was shifted from pH 7.8 to 6.4, which triggered a rapid and robust calcium flux, as measured by the fluorescence intensity of calcium-sensitive dye Cal520-AM. This calcium flux was blocked by OGM2 and PLC inhibitor U73122. FIG. 50A, FIG. 50B, FIG. 50C and FIG. 50D.

A2058 = assay: Scratch assay; assay type: cell-based, human; settings: 20 hours, OGM2 5 uM
WM115 = assay: Scratch assay; assay type: cell-based, human; settings: 20 hours, OGM2 5 uM
Procedure: (§1) Since there are numerous parallels are found between neural crest cells and cancer during migration, we examined whether OGM could inhibit the migration of cells in human melanoma cell lines (Oppitz et al., 2007; Schriek et al., 2005, Sinnberg et al., 2018). […] A2058. MeWo and WM115 cells were grown to confluence and a stripe of cells were denuded with a p200 pipette tip “scratch” and rinsed with PBS. Cells were treated with OGM or DMSO and incubated in low serum media. Imaging was done at 30 minutes after “scratch” and then 20 hours afterwards. Areas were then measured and normalized to the initial area.

MeWo = assay: Scratch assay; assay type: cell-based, human; settings: 20 hours, OGM2 5 uM
Procedure: as §1

U87 spheroids = assay: GBM spheroid assay; assay type: cell-based, human
Procedure: One thousand cells per well were plated in an ultra-low attachment, round-bottomed, 96-well plate, and spheroids were allowed to form for 3 days. Wells were then exposed to concentrations of vehicle, OGM2 or TMZ or a combination for 3 days. Spheroids were imaged in brightfield at 10× using z-stacks that were collapsed into z-projections in the Gen5 software using the LionheartFx (BioTek™). Automated measurements of the spheroid area were obtained using Gen5 software.
Tumor spheroid cultures are a more physiological model of tumor growth than typical 2D cell culture. Temozolomide sensitive U87 (FIG. 20A) and Temozolomide insensitive U138 (FIG. 20B) glioblastoma cell lines were plated in low attachment round bottom 96-well plates and allowed to form tumor spheroids for 3 days (T0). At T0, spheroids were imaged using Lionheart™ (HCS) High-Content Imaging Systems (Biotek™) and then were exposed to increasing doses of either Temozolomide or OGM2. After 5 days of treatment the spheroids were imaged again (T5). The size (area) of the spheroids after 5 days of treatment was quantified, and the average size of the spheroids at TO is depicted in red.
A GPR68-positive allosteric modulator, Ogerin, was tested. U87glioblastoma cells were plated in low attachment round bottom 96-well plates and allowed to form tumor spheroids for 3 days (TO). These spheroids were treated with Vehicle (DMSO), 10 μM/20 μM Ogerin or 10 μM/20 μM Ogremorphin-2 (OGM2). The spheroids were placed in the Lionheart™ HCS equipped with environmental control (5% CO2 at 37° C.) and imaged every 12 hours.
Spheroids were formed over 3 days using low attachment 96-well round bottom plates and then treated with DMSO or OGM2 in either pH 8 buffered media or pH 6.2 buffered media and grown for 3 days. The size (area) of spheroids was measured in relative area units. […] This increase in growth was abrogated by OGM2.

endothelial cell (EC) = assay: Acidification-induced endothelial cell dysfunction; assay type: cell-based; settings: OGM2 3 uM; Ogerin 2 uM
Procedure: FIG. 34A through FIG. 34C: GPR68 plays a central role in acidification-induced endothelial cell (EC) dysfunction in vitro, and OGM2 abrogates EC dysfunction. […] These effects were abolished by OGM2 (OGM) at 3 uM and augmented by GPR68 positive allosteric modulator Ogerin (Og) at 2 uM. *P<0.05; Mann-Whitney test, n=5. FIG. 34C: Medium acidification reduced transendothelial resistance (TER), indicative of disruption of EC barrier function.

HEK293 = assay type: cell-based; settings: human
Description: FIG. 59A through FIG. 59D: OGM2 causes specific cell death in glioblastoma cells.
Thus, in contrast to erastin, OGM2 induces ferroptosis selectively in cancer cells.

COc1ccc2c(c1)CC[C@@H]1[C@@H]2CC[C@]2(C)[C@@H](NCCCCCCN3C(=O)C=CC3=O)CC[C@@H]12 [Compound U73122]
acid-induced calcium flux (U87 glioblastoma cells): blocked

CCN(c1nc(N)c(C(=O)NC(=N)N)nc1Cl)C(C)C [EIPA, reference compound]
migration (A2058): inhibited migration | migration (WM115): inhibited migration | migration (MeWo): not

Nc1nc(NCc2ccccc2)nc(-c2ccccc2CO)n1 [Ogerin, reference compound]
spheroid growth rate (U87 spheroids): promoted U87 spheroids growth rate | acidic media (pH 6.5)-induced TNFα, VCAM1 and ICAM1 expression (endothelial cell (EC)): augmented

CCOc1ccccc1-n1c(C(C)N2CCN(C(=O)COc3ccc(Cl)cc3)CC2)nc2ccccc2c1=O (centres unmarked) [erastin, reference compound]
HEK293 cell viability / survival (HEK293): dramatically reduced HEK293 cell survival

CCc1nn2c(C)cc(C)nc2c1Cc1ccc(-c2nnc(C3CCNCC3)o2)cc1 [NE52QQ, reference compound]
acid-induced calcium flux (U87 glioblastoma cells): not significant
